Measurements: the supplement of paper PMC10307832

Compound: c1ccc2c(CCNc3ccc(Nc4ccncc4)cc3)c[nH]c2c1 [Serdemetan] + COc1cc2c(Oc3ccc(NC(=O)C4(C(=O)Nc5ccc(F)cc5)CC4)cc3F)ccnc2cc1OCCCN1CCOCC1 [Foretinib] (partner 0.25 µM)
Assay: relative viability (nuclei count vs DMSO), 5 days (fraction); higher = more cells survive
Details: first compound 0.04 µM
How it was run: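 For relative viability, nuclei counts in treated wells were divided by those in vehicle wells. Lung cancer cell lines had been pin-tool dosed in 1536-well plates the day after seeding and cultured for 5 days, then fixed and stained in one step (final 0.05% Triton X-100, 1% formaldehyde, 1 ug/ml Hoechst) and imaged at 4×. Doses were one drug alone or a fixed anchor-drug dose plus five library-drug doses (not always all listed) in √10 steps, and values are duplicate-plate medians.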

Compared with COR-L23, COR-L 105 is lower in relative viability: 0.989 for the first, 0.979 for the second.

First: LOU-NH91
Second: ChaGo-K-1
The relative viability of the first is higher: 0.928 for the first, 0.9 for the second.

First: NCI-H2170
Second: NCI-H2405
The relative viability of the first is lower: 1.02 for the first, 1.03 for the second.

First: HOP-62
Second: LU99A
The relative viability of the first is higher: 1.04 for the first, 0.881 for the second.

Going from BEN to HARA, the relative viability rises from 0.631 to 0.84.

First: HCC-78
Second: NCI-H322M
The relative viability of the first is lower: 0.531 for the first, 0.946 for the second.

First: LCLC-97TM1
Second: NCI-H2009
The relative viability of the first is lower: 0.935 for the first, 1.18 for the second.

Going from A-427 to NCI-H441, the relative viability rises from 1.01 to 1.05.

Compared with NCI-H1734, NCI-H460 is higher in relative viability: 0.692 for the first, 0.895 for the second.

Going from NCI-H2347 to SK-LU-1, the relative viability falls from 1.08 to 0.767.

Going from NCI-H1395 to 201T, the relative viability rises from 1 to 1.14.

Going from NCI-H1915 to HCC-827, the relative viability falls from 1.14 to 0.991.

Compared with LXF-289, NCI-H23 is lower in relative viability: 1.02 for the first, 0.891 for the second.

Going from NCI-H647 to CAL-12T, the relative viability falls from 1.2 to 1.07.

First: NCI-H1651
Second: EPLC-272H
The relative viability of the first is lower: 0.724 for the first, 0.881 for the second.

Going from NCI-H2228 to NCI-H1355, the relative viability rises from 0.755 to 0.963.

For NCI-H3122, the relative viability was 0.992.

Same assay, conditions: first compound 0.1265 µM

Compared with COR-L23, COR-L 105 is lower in relative viability: 1.01 for the first, 0.866 for the second.

Going from LOU-NH91 to ChaGo-K-1, the relative viability falls from 0.927 to 0.703.

Going from NCI-H2170 to NCI-H2405, the relative viability rises from 0.97 to 1.01.

Going from HOP-62 to LU99A, the relative viability falls from 1.08 to 0.702.

Going from BEN to HARA, the relative viability rises from 0.682 to 0.903.

Compared with HCC-78, NCI-H322M is higher in relative viability: 0.524 for the first, 0.887 for the second.

Compared with LCLC-97TM1, NCI-H2009 is higher in relative viability: 0.899 for the first, 1.14 for the second.

First: A-427
Second: NCI-H441
The relative viability of the first is higher: 0.933 for the first, 0.918 for the second.

Going from NCI-H1734 to NCI-H460, the relative viability rises from 0.335 to 1.01.

First: NCI-H2347
Second: SK-LU-1
The relative viability of the first is higher: 0.831 for the first, 0.745 for the second.

Going from NCI-H1395 to 201T, the relative viability rises from 0.969 to 1.13.

Compared with NCI-H1915, HCC-827 is lower in relative viability: 1.09 for the first, 0.948 for the second.

LXF-289 and NCI-H23 are the same in relative viability: 1.01 for the first, 1.01 for the second.

NCI-H647 and CAL-12T are the same in relative viability: 1.15 for the first, 1.15 for the second.

Going from NCI-H1651 to EPLC-272H, the relative viability rises from 0.515 to 0.684.

First: NCI-H2228
Second: NCI-H1355
The relative viability of the first is lower: 0.518 for the first, 0.955 for the second.

NCI-H3122 showed a relative viability of 0.932.

Same assay, conditions: first compound 0.4 µM

Going from COR-L23 to COR-L 105, the relative viability falls from 1.07 to 0.9.

Compared with LOU-NH91, ChaGo-K-1 is lower in relative viability: 0.63 for the first, 0.566 for the second.

Compared with NCI-H2170, NCI-H2405 is lower in relative viability: 1.05 for the first, 1.01 for the second.

Compared with HOP-62, LU99A is lower in relative viability: 1.1 for the first, 0.487 for the second.

Compared with BEN, HARA is higher in relative viability: 0.794 for the first, 0.871 for the second.

First: HCC-78
Second: NCI-H322M
The relative viability of the first is lower: 0.463 for the first, 0.909 for the second.

Compared with LCLC-97TM1, NCI-H2009 is higher in relative viability: 0.918 for the first, 1.16 for the second.

Compared with A-427, NCI-H441 is lower in relative viability: 1.1 for the first, 0.981 for the second.

Compared with NCI-H1734, NCI-H460 is higher in relative viability: 0.223 for the first, 0.883 for the second.

Compared with NCI-H2347, SK-LU-1 is lower in relative viability: 0.89 for the first, 0.77 for the second.

First: NCI-H1395
Second: 201T
The relative viability of the first is lower: 0.926 for the first, 1.02 for the second.

Going from NCI-H1915 to LXF-289, the relative viability falls from 1.07 to 0.951.

Compared with NCI-H23, NCI-H647 is higher in relative viability: 0.831 for the first, 1.1 for the second.

Going from CAL-12T to NCI-H1651, the relative viability falls from 1.04 to 0.407.

First: EPLC-272H
Second: NCI-H2228
The relative viability of the first is lower: 0.305 for the first, 0.784 for the second.

Compared with NCI-H1355, NCI-H3122 is higher in relative viability: 0.798 for the first, 0.972 for the second.

Same assay, conditions: first compound 1.265 µM

First: COR-L23
Second: COR-L 105
The relative viability of the first is higher: 0.847 for the first, 0.839 for the second.

First: LOU-NH91
Second: ChaGo-K-1
The relative viability of the first is higher: 0.952 for the first, 0.335 for the second.

Compared with NCI-H2170, NCI-H2405 is higher in relative viability: 0.637 for the first, 0.902 for the second.

First: HOP-62
Second: LU99A
The relative viability of the first is higher: 0.796 for the first, 0.245 for the second.

Going from HARA to HCC-78, the relative viability falls from 0.585 to 0.422.

First: NCI-H322M
Second: NCI-H2009
The relative viability of the first is lower: 0.963 for the first, 1.14 for the second.

First: A-427
Second: NCI-H441
The relative viability of the first is lower: 0.778 for the first, 0.99 for the second.

First: NCI-H1734
Second: NCI-H460
The relative viability of the first is lower: 0.126 for the first, 0.597 for the second.

Going from NCI-H2347 to NCI-H1395, the relative viability falls from 0.954 to 0.883.

Compared with 201T, NCI-H1915 is higher in relative viability: 0.636 for the first, 1.03 for the second.

Compared with HCC-827, LXF-289 is higher in relative viability: 0.594 for the first, 0.62 for the second.

Compared with NCI-H23, NCI-H647 is higher in relative viability: 0.791 for the first, 1.17 for the second.

First: CAL-12T
Second: NCI-H1651
The relative viability of the first is higher: 1.03 for the first, 0.465 for the second.

Compared with EPLC-272H, NCI-H2228 is lower in relative viability: 0.459 for the first, 0.303 for the second.

With NCI-H1355 the relative viability was 0.907.

Same assay, conditions: first compound 4 µM

Going from COR-L23 to COR-L 105, the relative viability falls from 0.843 to 0.772.

Compared with LOU-NH91, ChaGo-K-1 is lower in relative viability: 0.873 for the first, 0.296 for the second.

Going from NCI-H2170 to NCI-H2405, the relative viability falls from 1.14 to 0.764.

First: HOP-62
Second: LU99A
The relative viability of the first is higher: 0.693 for the first, 0.223 for the second.

Going from BEN to HARA, the relative viability falls from 0.609 to 0.452.

First: HCC-78
Second: NCI-H322M
The relative viability of the first is lower: 0.426 for the first, 0.481 for the second.

Going from LCLC-97TM1 to NCI-H2009, the relative viability rises from 0.767 to 0.887.

Going from A-427 to NCI-H441, the relative viability rises from 0.469 to 0.872.

Compared with NCI-H1734, NCI-H460 is lower in relative viability: 0.204 for the first, 0.104 for the second.

Compared with NCI-H2347, SK-LU-1 is higher in relative viability: 0.604 for the first, 0.61 for the second.

First: NCI-H1395
Second: 201T
The relative viability of the first is lower: 0.571 for the first, 0.73 for the second.

Compared with NCI-H1915, HCC-827 is lower in relative viability: 0.837 for the first, 0.62 for the second.

Going from LXF-289 to NCI-H23, the relative viability falls from 0.793 to 0.706.

Going from NCI-H647 to CAL-12T, the relative viability rises from 0.801 to 0.969.

First: NCI-H1651
Second: EPLC-272H
The relative viability of the first is lower: 0.235 for the first, 0.477 for the second.

For NCI-H2228, the relative viability was 0.258.
